Measured values published in patent publication US20110091473A1, “NOVEL ANTIBODY THERAPIES” (GENMAB A/S, priority 2007, published 2011).

T1: human CD20 (human, UniProt P11836 1-297)
T1 sequence (looked up): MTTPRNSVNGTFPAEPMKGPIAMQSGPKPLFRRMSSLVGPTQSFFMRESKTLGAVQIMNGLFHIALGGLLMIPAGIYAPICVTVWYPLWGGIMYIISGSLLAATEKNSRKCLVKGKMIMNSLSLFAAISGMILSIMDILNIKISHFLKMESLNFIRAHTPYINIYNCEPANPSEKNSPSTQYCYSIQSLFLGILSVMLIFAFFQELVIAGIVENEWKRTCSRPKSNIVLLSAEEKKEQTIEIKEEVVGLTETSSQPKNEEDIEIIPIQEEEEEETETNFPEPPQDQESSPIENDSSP


How the values were obtained:
human CD20 [1] = target: T1, human CD20; assay: flow cytometry, FITC-conjugated antibody on freshly isolated B cells of five patients after 80 mg atorvastatin
Excerpt: Informed consent was provided according to the Declaration of Helsinki.

[2] = system: CD20 on RAJI-CD20high cells; assay: Flow cytometry binding of FITC-conjugated B9E9 to RAJI-CD20high cells; set-up: species or system human; settings: Berberine chloride 24 hours; Fillipin III 30 minutes
Description: To deplete cholesterol from the cell membrane, methyl-beta-cyclodextrin (MβCD, Sigma, Zwijndrecht, The Netherlands) was added in varying concentrations to Daudi cells and RAJI-CD20high cells and incubated for 30 minutes at 37° C. under gentle shaking conditions. After incubation the cells were washed twice in PBS and resuspended in test medium to a concentration of 2×10^6 viable cells/ml. MβCD-treated Daudi cells (1×10^5) were incubated with a saturating concentration of FITC-conjugated human anti-CD20 mAb 2F2 or the anti-CD20 mAb B9E9 (Beckman Coulter Inc., Fullerton, Calif.) for 30 minutes at 4° C. After washing twice with FACS buffer (PBS, 0.1% Bovine Serum Albumine, 0.02% Sodium Azide), cells were analyzed on a FACS Calibur (Becton Dickinson, Breda, The Netherlands). […] Binding is expressed as mean fluorescence intensity. […]
To determine the effect of adding cholesterol on CD20 mAb binding, all cell lines (1×10^5) were incubated with a saturating concentration of B9E9 for 30 minutes at 4° C. After washing twice with FACS buffer (PBS, 0.1% Bovine Serum Albumine, 0.02% Sodium Azide), the cells were analyzed on a FACS Calibur (Becton Dickinson, Breda, The Netherlands).
Cholesterol was depleted from the cell membrane of various B cells using varying concentrations of lovastatin (as described in Example 3) and CD20 mAb binding was determined. […]

RAJI-CD20high cells = assay: Rituximab-mediated CDC of RAJI-CD20high cells, MTT assay; assay type: cell-based, human; settings: Berberine chloride 24 hours or Fillipin III 30 minutes; 10 μg/ml rituximab, 10% serum
Excerpt: Statins are competitive inhibitors of 3-hydroxy-3-methylglutaryl-coenzyme A reductase (HMG-CoAR). HMG-CoAR is a rate-limiting enzyme of the mevalonate pathway essential for the synthesis of isoprenoid compounds including cholesterol (McTaggart S J (2006) Isoprenylated proteins. Cell Mol Life Sci 63:255-267). By inhibiting HMG-CoAR, statins can lower the cholesterol blood level and extract cholesterol from the cell membrane. To determine the effect of statin-mediated cholesterol depletion on immunotherapy RAJI-CD20high cells were cultured with a concentration range of lovastatin or diluent for 48 hours.
Cell viability was measured in a MTT assay in which 3-(4,5-dimethylthiazol-2-yl)-2,5-diphenyltetrazolium bromide (MTT) solution (5 mg/ml, Roche, Diagnostics, Almere, The Netherlands) was added to each well (flat-bottom microtiter plates; Nunc, Rochester, N.Y.). The reaction was stopped after 4 hours of incubation at 37° C. by the addition of 100 μl of 20% SDS (Roche Diagnostics, Almere, The Netherlands). After overnight incubation at 37° C. the absorbance of the samples was measured at 550-525 nm using an Elisa reader (EL808x, Biotek instruments, Highland park, Vt., USA). Cytotoxicity was expressed as a relative viability of the rituximab-mediated CDC of lovastatin-treated cells compared to cells incubated with medium only and was calculated as follows: relative viability=[(Ae−Ab)/(Ac−Ab)]*100, where Ab is the background absorbance, Ae is experimental absorbance of the lysed cells and Ac is the absorbance of untreated cells. The viability was expressed as percentage survival in comparison to non-cholesterol depleted cells (control).
RAJI-CD20high cells were incubated with diluents (control) or a concentration range of either Fillipin III for 30 minutes or Berberine chloride for 24 hours. […] The cytotoxic effects were measured in a MTT assay. […] After overnight incubation at 37° C. the absorbance of the samples was measured at 550-525 nm using an Elisa reader (EL808x, Biotek instruments, Highland park, Vt., USA). […]

[3] = system: cell surface proteins on RAJI cells; assay: FACS binding of mAbs to cell surface proteins on RAJI cells; assay type: cell-based, human; settings: increasing concentrations of MβCD
Description: B cells (either non-treated cells, cholesterol-depleted cells via MβCD or lovastatin, or cholesterol-reconstituted cells) were characterized for quantitative surface expression of the B cell markers CD19, CD20, and CD21, the T-cell marker CD3, complement regulatory proteins CD55 and CD59, and HLA-DR and CD81 by direct immunofluorescence. […] After washing twice with FACS buffer (PBS, 0.1% Bovine Serum Albumine, 0.02% Sodium Azide), the cells were analyzed on a flow cytometer.

human CD20 [4] = target: T1, human CD20; assay: cell-based or functional assay

Molecule	average decrease of the CD20/CD21 MFI ratio, day 3 against day 0 (so in the source) (human CD20 [1]) [%]	binding of B9E9 to cells treated with cholesterol-modulating drug [2]	rituximab-mediated CDC after pre-incubation (RAJI-CD20high cells)	further results
CD20 mAb B1 (GlaxoSmithKline) (antibody)	96	–	–	–
Fillipin III	–	not observed	remained sensitive	–
methyl-beta-cyclodextrin [MβCD]	–	–	–	binding of mAbs against CD19, CD20, CD55, CD59, HLA-DR and CD81 [3]: negatively correlated; mAb binding to CD21 [3]: not affected
COc1ccc2cc3[n+](cc2c1OC)CCc1cc2c(cc1-3)OCO2 [Berberine chloride]	–	impaired binding	significantly abrogated	–
CD20 mAb 11B8 (antibody, V domains shown) VH: EVQLVQSGGGLVHPGGSLRLSCTGSGFTFSYHAMHWVRQAPGKGLEWVSIIGTGGVTYYADSVKGRFTISRDNVKNSLYLQMNSLRAEDMAVYYCARDYYGAGSFYDGLYGMDVWGQGTTVTVSS VL: EIVLTQSPATLSLSPGERATLSCRASQSVSSYLAWYQQKPGQAPRLLIYDASNRATGIPARFSGSGSGTDFTLTISSLEPEDFAVYYCQQRSDWPLTFGGGTKVEIK	84	–	–	–
rituximab (antibody, V domains shown) VH: QVQLQQPGAELVKPGASVKMSCKASGYTFTSYNMHWVKQTPGRGLEWIGAIYPGNGDTSYNQKFKGKATLTADKSSSTAYMQLSSLTSEDSAVYYCARSTYYGGDWYFNVWGAGTTVTVSA VL: QIVLSQSPAILSASPGEKVTMTCRASSSVSYIHWFQQKPGSSPKPWIYATSNLASGVPVRFSGSGSGTSYSLTISRVEAEDAATYYCQQWTSNPPTFGGGTKLEIK	–	–	–	EC50 of rituximab-mediated ADCC, 51Cr release, lovastatin-treated RAJI cells, PBMC effector cells (human CD20 [4]): 0.082 µg/mL; EC50 of rituximab-mediated ADCC, 51Cr release, non-treated RAJI cells, PBMC effector cells (human CD20 [4]): 0.024 µg/mL
